Laboratory results published in patent US8067390B2, “Therapeutic targeting of interleukins using siRNA in neutral liposomes” (The Board of Regents of the University of Texas System, priority 2007, dated 2011).
Several values for one entry are separate records, joined by “and”; a condition that tells them apart may be missing. Identical values can stand only once. Entries after “also recorded” stand apart in the source; their conditions may differ.

How the values were obtained:
HeyA8 [1] = assay: IL-8 siRNA therapy in orthotopic murine ovarian cancer model, HeyA8; format: in vivo, mice
Excerpt: (§1) Cell lines and cultures. The derivation and source of the epithelial ovarian cancer cell lines HeyA8 and SKOV3ip1 have been previously described (Halder et al., 2006; Landen et al., 2005). The taxane-resistant cell line, SKOV3ip2.TR (a gift from Dr. Isaiah J. Fidler, M.D. Anderson Cancer Center [MDACC], Houston, Tex.), was derived from the SKOV3ip1 cells following serial passages in media containing paclitaxel. All cell lines were maintained and propagated in RPMI-1640 media supplemented with 15% fetal bovine serum and 0.1% gentamicin sulfate (Gemini Bioproducts, Calabasas, Calif.). SKOV3ip2.TR media also contained 100-150 ng/ml paclitaxel. All experiments were performed at 60-80% confluency and cell lines routinely tested for Mycoplasma. For in vivo experiments, cells were trypsinized, centrifuged at 1000 rpm at 4° C. for 7 minutes, washed twice with HBSS, and resuspended at a concentration of 1.25×10^6 cells/ml (HeyA8) and 5×10^6 cells/ml (SKOV3ip1 and SKOV3ip2.TR).
(§2) Preparation of liposomal siRNA for in vivo delivery. For all in vivo experiments, siRNA constructs were incorporated into neutral liposomes (DOPC: 1,2-dioleoyl-sn-glycero-3-phosphatidylcholine), lyophilized, and stored at −20° C. (Landen et al., 2005). Prior to in vivo delivery, siRNA-DOPC preparations were resuspended with PBS to appropriate concentrations.
(§3) IL-8 siRNA therapy in an orthotopic murine ovarian cancer model. Female athymic nude mice were purchased from the National Cancer Institute-Frederick Cancer Research and Development Center (Frederick, Md.) and housed in specific pathogen-free conditions. […]
(§4) Development and characterization of the orthotopic murine model of advanced ovarian cancer used in these experiments has been previously described (Halder et al., 2006; Landen et al., 2005). […] Mice were monitored daily for signs of adverse effects and sacrificed when moribund. Tumor weights, number of tumor nodules, pattern of disease spread, presence and amount of ascites, and mouse weights were recorded at necropsy. […]

SKOV3ip1 [2] = assay: IL-8 siRNA therapy in orthotopic murine ovarian cancer model, SKOV3ip1; format: in vivo, mice
Excerpt: as §1, §2, §3, §4

SKOV3ip2.TR = assay: IL-8 siRNA therapy in orthotopic murine ovarian cancer model, taxane-resistant SKOV3ip2.TR; format: in vivo, mice
Excerpt: as §1, §2, §3, §4

HeyA8 [3] = assay: Tumor microvessel density (CD31) in orthotopic HeyA8 tumors; format: in vivo, mice; details: CD31 staining
Method: (§5) Analysis of tumor microvessel density (CD31) and proliferation (PCNA). Microvessel density analysis was performed by immunostaining for CD31 antigen in orthotopic tumors as previously described (Halder et al., 2006). Briefly, frozen slides were rehydrated in acetone, blocked for endogenous peroxidases with H2O2 in methanol, and incubated overnight at 4° C. with rat anti-mouse m-CD31 antibodies (1:800; BD Bioscience, Pharmingen, San Jose, Calif.). The following day, slides were incubated with appropriate secondary antibody and detected with DAB substrate. Proliferation was assessed by staining for PCNA on paraffin slides as previously reported (Halder et al., 2006). After deparaffinization and rehydration, slides were heated in microwave at 98° C. for 10 min in 0.1M citrate buffer (pH 6.0) for antigen retrieval, blocked for endogenous peroxidases, and then incubated with fragment blocker (1:10; Jackson Immunoresearch Lab., West Grove, Pa.) overnight at 4° C. to reduce murine antigen interference. Following day, slides were incubated with primary antibody (1:50; anti-PCNA, PC-10, mouse IgG, Dako, Carpinteria, Calif.) for 4 hours at RT, washed with PBS, and re-incubated for 1 hour at RT with appropriate secondary. Detection was performed with DAB substrate. Quantification of MVD and proliferation was performed as previously described (Halder et al., 2006).

SKOV3ip1 [4] = assay: Tumor microvessel density (CD31) in orthotopic SKOV3ip1 tumors; format: in vivo, mice; details: CD31 staining
Method: as §5

HeyA8 [5] = assay: Tumor cell proliferation (PCNA) in orthotopic HeyA8 tumors; format: in vivo, mice; details: compared to controls
Method: as §5

SKOV3ip1 [6] = assay: Tumor cell proliferation (PCNA) in orthotopic SKOV3ip1 tumors; format: in vivo, mice; details: compared to controls
Method: as §5

IL-8 mRNA = IL-8 mRNA expression by RT-PCR after in vitro siRNA transfection; format: cell-based, human; details: RT-PCR 36-48 hours after siRNA transfection, compared to control siRNA
Excerpt: as §1
SiRNA and in vitro transfections. […]
mRNA and protein IL-8 expression analysis for in vitro transfections. The expression of IL-8 in vitro was determined with RT-PCR and ELISA 36-48 hours after siRNA transfection. […] For ELISA, cells were treated with serum-free media day prior to analysis and IL-8 protein levels were quantified using a commercially available ELISA kit (R&D Systems, Minneapolis, Minn.). […]

IL-8 = assay: Secreted IL-8 protein by ELISA after in vitro siRNA transfection; format: cell-based, human; details: for IL-8 protein levels reduced by: ELISA 36-48 hours after siRNA transfection
Excerpt: as §1
SiRNA and in vitro transfections. IL-8 targeting siRNA purchased from Dharmacon (Lafayette, Colo.) was used to silence IL-8 expression in ovarian cancer cell lines (target sequence: GCCAAGGAGUGCUAAAGAA—SEQ ID NO:1). The sequence of the sense strand of the IL-8 siRNA is […] (SEQ ID NO:39) and the sequence of the antisense strand of the IL-8 siRNA is […] (SEQ ID NO:40). […] For in vitro transfections, 2×10^5 cells/well were plated into 6-well plates. The following day, cells were washed with PBS and incubated with 5 μg siRNA (IL-8 or control) with 30 μl of RNAiFect transfection reagent (Qiagen, Valencia, Calif.) in serum-containing media overnight at 37° C. Media was changed 24 hours after transfection and replaced with appropriate media.
mRNA and protein IL-8 expression analysis for in vitro transfections. The expression of IL-8 in vitro was determined with RT-PCR and ELISA 36-48 hours after siRNA transfection. For RT-PCR analysis, RNA was isolated according to manufacturer's protocol (Ambion RNAqueous Kit, Ambion, Austin, Tex.), transcribed into cDNA, and amplified: 94° C.×2 min, 94° C.×30 sec, 61° C.×30 sec, 72° C. 2 min, repeated for 21 cycles, and 72° C.×7 min (Primers: IL-8 sense […] (SEQ ID NO:48); IL-8 anti-sense […] (SEQ ID NO:49); GAPDH sense GAGCCACATCGCTCAGAC (SEQ ID NO:50); GAPDH anti-sense CTTCTCATGGTTCACACCC (SEQ ID NO:51)). For ELISA, cells were treated with serum-free media day prior to analysis and IL-8 protein levels were quantified using a commercially available ELISA kit (R&D Systems, Minneapolis, Minn.). All experiments were performed in duplicate and control siRNA was used for comparison.

MMP2 = MMP2 expression after IL-8 siRNA transfection in vitro; format: cell-based, human; details: HeyA8 and SKOV3ip1 cell lines; following siRNA transfection in vitro
MMP9 = MMP9 expression after IL-8 siRNA transfection in vitro; format: cell-based, human; details: HeyA8 and SKOV3ip1 cell lines; following siRNA transfection in vitro
HeyA8 cell line = assay: Tumor cell invasion in vitro; format: cell-based, human
[7] = HeyA8 cells, media collected at various time points

## CC(=O)O[C@@]12CO[C@@H]1C[C@H](O)[C@@]1(C)C(=O)[C@H](O)C3=C(C)[C@@H](OC(=O)[C@H](O)[C@@H](NC(=O)OC(C)(C)C)c4ccccc4)C[C@@](O)([C@@H](OC(=O)c4ccccc4)[C@H]21)C3(C)C [docetaxel]
HeyA8 [1]; compared to controls
  tumor burden, average number of tumor nodules (in words): reduced tumor burden
SKOV3ip1 [2]; compared to controls
  tumor burden, average number of tumor nodules (in words): reduced tumor burden
SKOV3ip2.TR; SKOV3ip2.TR taxane-resistant, compared to controls, docetaxel 35 μg
  tumor growth reduction (tumor weight): 11%
HeyA8 [3]
  effect on MVD / tumor angiogenesis (in words): Minimal effects
SKOV3ip1 [4]
  effect on MVD / tumor angiogenesis (in words): Minimal effects
HeyA8 [5]
  tumor cell proliferation, PCNA staining (in words): effective in reducing proliferation; also recorded: decreased tumor cell proliferation
SKOV3ip1 [6]
  tumor cell proliferation, PCNA staining (in words): effective in reducing proliferation; also recorded: decreased tumor cell proliferation

## IL-8 siRNA: IL-8 targeting siRNA from Dharmacon; sense GCCAAGGAGUGCUAAAGAAUU (SEQ ID NO:39), antisense UUCUUUAGCACUCCUUGGCUU (SEQ ID NO:40) (incorporated into neutral DOPC liposomes, further chemistry not given here)
IL-8 mRNA; HeyA8
  IL-8 mRNA expression: significantly reduced; also recorded: significantly decreased
IL-8 mRNA; SKOV3ip1
  IL-8 mRNA expression: significantly reduced; also recorded: significantly decreased
IL-8; HeyA8
  IL-8 protein levels reduced by: 79% and 80%
IL-8; [7]
  IL-8 returning to baseline, time after transfection: ≤ 96 h
  Maximum down regulation of IL-8, time after transfection: 48 h
IL-8; SKOV3ip1
  IL-8 protein levels reduced by: 81% and 80%
HeyA8 [1]
  No. nodules (mean ± SE): 3.4 ± 0.8
  Tumor incidence (%): 100%
SKOV3ip1 [2]
  No. nodules (mean ± SE): 21.0 ± 7.3
  Tumor incidence (%): 70%
SKOV3ip2.TR; SKOV3ip2.TR
  No. nodules (mean ± SE): 21.9 ± 3.4
  Tumor incidence (%): 90%
MMP2
  MMP2 expression: decreased
MMP9
  MMP9 expression: decreased
HeyA8 cell line
  tumor cell invasion in vitro: decreased tumor cell invasion
